In series [1] the test system is panel of 50 receptors, channels and enzymes binding sites. The following applies: 1 μM.
Series [2] relates to PGF2α-induced myometrial contractility. In words: PGF2α-induced contractions of human myometrial biopsies (myograph). As to conditions: 6, 60, 600, 6000 nM. As for the experimental part:
Experiments were performed using a DMT Myograph 800 MS (ADINSTRUMENTS™) in oxygenated Kreb's solution with ADI Powerlab software. Once regular contractions had been established for at least 20 minutes, baseline measurements of spontaneous contraction frequency were recorded. The measurement of spontaneous contraction frequency is represented on the x-axis as “Spon.” A DMSO control or compound II was then added to each myometrial sample at the indicated concentrations and the effects of control or compound II on contractile frequency were measured over the ensuing 10-minute period. This time point is represented on the x-axis as “Compound II.” The effects of compound II on contractile frequency in the presence of PGF2α were subsequently measured by challenging the myometrial tissue samples with increasing concentrations of PGF2α (1 nM, 10 nM, and 100 nM) at sequential 10-minute intervals. […] Once regular contractions had been established for at least 20 minutes, baseline measurements of spontaneous work done per contraction were recorded. The measurement of spontaneous work done per contraction is represented on the x-axis as “Spon.” A DMSO control or compound II was then added to each myometrial sample at the indicated concentrations and the effects of control or compound II on work done per contraction were measured over the ensuing 10-minute period. […]

The nature of series [3]: Stability in HBSS buffer of the Caco-2 experiments. It counts as in vitro ADME. The following applies: HBSS buffer (2% DMSO final concentration) at 37° C. for 60 and 120 minutes. As for the experimental part: Stability of both compound I and compound II was assessed during the test. […] An aliquot of each solution was sampled at time zero (t=0) to assess the starting concentrations of the compounds. The solutions were incubated at 37° C. for the duration of the transport experiment. An aliquot of each solution was sampled at the end of experiment (t=120) to assess the final concentrations of compound I and compound II. Samples were analyzed by LC-MS.

In a further series the target is human FP (Homo sapiens, UniProt P43088). In words: IP3 synthesis in FP-transfected HEK293-EBNA cells. As to conditions: tested up to 10 μM.
Chain of human FP (P43088 whole entry): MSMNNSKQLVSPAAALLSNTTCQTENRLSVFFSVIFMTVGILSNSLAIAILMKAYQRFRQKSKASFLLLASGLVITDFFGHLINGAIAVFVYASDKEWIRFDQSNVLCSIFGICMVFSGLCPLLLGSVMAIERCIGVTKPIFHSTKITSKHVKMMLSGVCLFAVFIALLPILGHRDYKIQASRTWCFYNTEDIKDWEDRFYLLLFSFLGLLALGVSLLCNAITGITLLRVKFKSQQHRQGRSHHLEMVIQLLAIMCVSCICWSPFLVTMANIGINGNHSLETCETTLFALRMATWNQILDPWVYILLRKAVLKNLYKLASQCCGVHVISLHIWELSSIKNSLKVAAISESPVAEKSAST

Turning to `O=C(N[C@@H](CCO)c1ccc(F)cc1)[C@@H]1SCCN1S(=O)(=O)c1ccc(-c2ccccc2)cc1` [Compound II, 3-([1,1′-biphenyl]-4-ylsulfonyl)-N-[1-(4-fluorophenyl)-3-hydroxypropyl]-1,3-thiazolidine-2-carboxamide], in series [1], the “Selectivity in panel of 50 receptors, channels and enzymes” value is reported as “high selectivity for FP”. The “Effect on PGF2α-induced myometrial contractility” value in series [2] is “suppressing both PGF2α-induced and OT-induced myometrial contractility in a dose-dependent fashion”. The “Stability in HBSS buffer” value in series [3] was “stable”. The “Agonist activity (IP3 synthesis when added alone)” value on human FP is recorded as “did not induce any synthesis of IP3”.

The record behind these values is patent US11524003B2, “Alpha-amino esters of hydroxypropylthiazolidine carboxamide derivative and salt form, crystal polymorph thereof” (ObsEva S.A., priority 2016, dated 2022).
